Laboratory results published in US11773183B2, “MUC16 monoclonal antibody and uses thereof” (QUEST PHARMATECH INC., priority 2018, dated 2023).

System: T3M4 wildtype (WT) cells
Assay: Live/Dead cell cytotoxicity assay, T3M4 wildtype cells
Format: cell-based, human
Conditions: 24 h
Protocol: Materials and Methods. T3M4 wildtype (WT) and COSMC deleted (SimpleCells, SC) were treated with equal amounts of mAR 9.6 (5 μg/ml) and POCmAb (5 μg/ml) or with isotype matched (either mouse or human) control IgG antibody for 24 h. For the comparison of effect of antibodies in inducing cell death, T3M4 WT cells were treated with Sapitinib (an ErbB receptor tyrosine kinase inhibitor, 5.4 μM) and LY294002 (PI3K/Akt inhibitor, 11.3 μM) alone or in combination with mAR9.6 (5 μg/ml) and POCmAb (5 μg/ml) for 24 h. The cells were washed well with cell-culture grade PBS. 20 μl ethidium homodimer-1 (EthD-1, 2 mM) was dissolved in 10 ml PBS. To this solution, 5 μl of calcein acetoxymethyl ester (calcein-AM, 4 mM) was added. 150 μl of this combined reagent was added to the cells grown on coverslip and incubated for 30-45 minutes. The numbers of live and dead cells were detected with Zeiss LSM 710™ confocal laser scanning microscope (Carl Zeiss, Inc., Thornwood, NY, USA) at Confocal Laser Scanning Fluorescence Microscope Core Facility, UNMC. The ratio of dead cells to total cells was calculated for quantitative comparisons. Unpaired Student's t-test was performed to calculate the statistical significance between the antibodies treated T3M4 WT and T3M4 SC cells (n=4) (p<0.05 considered statistically significant). Two way analysis of variance (ANOVA) was performed to calculate the statistical significance between the inhibitors and antibody treated T3M4 cells (n=4) (p<0.05 considered statistically significant).

[1] = inhibitor (Sapitinib 5.4 μM, LY294002 11.3 μM) with human IgG isotype control
[2] = inhibitor (Sapitinib 5.4 μM, LY294002 11.3 μM) with mouse IgG isotype control

| Structure (SMILES) | cell death (ratio of dead cells to total cells) [1] | cell death (ratio of dead cells to total cells) [2] |
| --- | --- | --- |
| O=c1cc(N2CCOCC2)oc2c(-c3ccccc3)cccc12 [LY294002] | about 15% | about 15% |
| CNC(=O)CN1CCC(Oc2cc3c(Nc4cccc(Cl)c4F)ncnc3cc2OC)CC1 [Sapitinib] | about 17% | about 17% |
